Laboratory results reported in patent US20040097408A1, “Compounds regulating cell proliferation and differentiation” (priority 2001, published 2004).

Key:
EpH4-A6 cells = assay: anti-BrdU cytoblot assay (BrdU incorporation); format: cell-based, mouse
Method: In order to look for selective inhibitors of cell proliferation dependent on Neu, a chemical library was screened using a cytoblot assay. The ability of small molecules to inhibit cell proliferation at a final concentration of […] determined by the relative incorporation of BrdU into DNA in EpH4-A6 Neu-overexpressing and EpH4-EV control cells.
A modified version of a protocol previously described was used for the cytoblot assay (Stockwell et al. (1999) Chem Biol 6(2), 71-83). Briefly, for this cytoblot assay, 2,000 control (EpH4-EV) and Neu overexpressing (EpH4-A6) cells were seeded in 40 μL of growing medium in duplicate in each well of a white […] plate (Costar). 16,000 compounds from a chemical library (Chembridge) were transferred to each well to a final concentration of 10-15 μM. Plates were incubated at 37° C. with 5% CO2 for 36 hours. BrdU was then added to a final concentration of 20 μM and the cells were incubated at 37° C. with 5% CO2 for an additional 3 hours. Cells were then washed with PBS and fixed with 75% ethanol/25%TBS at 4° C. for 1 hour. DNA denaturation was achieved by incubation with 2M HCl/0.5% Tween-20 for 20 min, followed by neutralization with 2M NaOH in Hank's Balanced Salt Solution (HBSS). Cells were subsequently washed with HBSS, blocked with PBS/0.3% Tween-20/1% BSA (PSTB), and incubated with 0.5 μg/mL of mouse anti-BrdU antibody (PharMingen) and 1:5,000 dilution of anti-mouse IgG coupled to HRP in PBSTB for 1 hour at room temperature. Finally the cells were washed with PBS and 20 μL of 1:1 mix of the enhanced chemiluminescence reagent (Pierce) was then added to each well of a plate. In every case addition of reagents was done using a mutli-drop 384 liquid dispenser (Labsystems) and the washes using a plate washer (Bio-Tek Instruments). Chemiluminescent signal from each plate was detected by autoradiograph and multilabel counter Victor^2 (Wallac) in order to quantitate results. A control cytoblot using inhibitory anti-Neu monoclonal antibodies was performed following the same procedure with the exception that anti-Neu antibody was added to the medium at a final concentration of 20 μg/mL.
The potency of these 55 small molecules was then evaluated at lower concentrations, i.e., at 10 μM and 1 μM using the cytoblot assay described above. […] These six compounds are referred to as E20 (ID 141525); F12 (ID 120590); F16 (ID 274873); H10 (ID 120670); J6 (ID 120856); N12 (ID 215015), and their structure is shown in FIGS. 2 A-F, respectively. […] These two compounds are referred to as L4 (ID 121113); B15(ID217496) […]. FIGS. 2 A-H also show proton NMR spectra of each of the molecules that confirmed their identity. […]

[1] = system: isolated mouse liver mitochondria; assay: mitochondrial membrane potential by F16 fluorescence; format: biochemical; details: 1 μM and 50 μM F16
Method: Mitochondria were isolated from liver of Balb/c7 mice by standard differential centrifugation, and resuspended in isolation buffer (0.2 M sucrose, 10 mM Tris-MOPS pH 7.4, 0.1 mM EGTA-Tris, 0.1% delipidated BSA) (Costantini et al. (1995) Toxicology (99) 77-88). Protein concentration was determined by Bradford assay. For swelling determination, changes in side scatter at 545±2.5 nm of a 0.5 mg/ml suspension of mitochondria in experimental buffer (125 mM KCl, 10 mM Tris-MOPS pH 7.4, 1 mM Pi, 5 mM glutamate, 2.5 mM malate, 10 μM EGTA-Tris, pH 7.4) were monitored by using LS-50B spectrofluorimeter. To monitor changes in mitochondrial membrane potential, the intrinsic potentiometric properties of F16 were used. Mitochondria (0.5 mg/ml) were incubated in experimental buffer with the indicated concentrations of F16 and changes in F16 fluorescence intensity were measured, using a LS-50B spectrofluorimeter at 25° C., with excitation and emission wavelengths set at 415±2.5 nm and 520±5 nm, respectively. All reactions were performed at 25° C. and the instrument was equipped with magnetic stirring.
The fluorescent properties of F16 were used for this purpose. It was determined whether the fluorescence of a 1 μM solution of F16 changed in response to mitochondrial energization and depolarization. […] Preincubation of mitochondria with the PTP inhibitor CsA only partially blunted this effect.

mice = assay: tolerability of intraperitoneal F16 in mice
[2] = FACS analysis of F16 in tumor cell populations; format: in vivo, mouse; details: tumors of F16-treated nude mice
Method: Several tumor cell populations from F16 treated and untreated mice were analyzed by FACS, in order to determine the presence of F16 in the cells.

A6 cells = assay: apoptosis time course (DNA fragmentation, propidium iodide staining, cytochrome c release); format: cell-based, mouse; details: 3 μM F16, 48, 60 and 72 hr, FIG. 6
Method: The DNA fragmentation assay was conducted by isolating DNA from 1×10^6 of untreated or F16 treated for 48, 60 and 72 hr using Suicide-Track TM (Oncogene) according to manufacturer's procedure. Samples were resolved by agarose gel electrophoresis and ethidium-bromide stained. Cytochrome c release was measured by immunofluorescence as follows. Untreated or F16-treated A6 cells were washed and fixed with ice-cold 3.7% paraformaldehyde at RT, permeabilized for with ice-cold 0.01% (v/v) Nonidet P-40 for 20 min and incubated with 0.5% BSA/PB. Immunodetection was performed with monoclonal anti-cytochrome c antibody (PharMingen) and secondary anti-mouse-TRITC conjugated antibody. Cells were photographed under Axioskop using a Spot Camera (Diagnostic Instruments).

C[n+]1ccc(/C=C/c2c[nH]c3ccccc23)cc1.[I-] [F16]
score in anti-BrdU cytoblot (EpH4-A6 cells; EpH4-A6 cells at 10 μM): positive | concentration up to which anti-proliferative activity is retained (EpH4-A6 cells; EpH4-A6 cells, concentrations from 100 to 0.01 μM, FIG. 3): 100 nM | concentration at which F16 is effective / partially inhibits BrdU incorporation (as low as) (EpH4-A6 cells; EpH4-A6 cells, cytoblot): 10 nM | concentration at which anti-proliferative activity was shown (as low as) (EpH4-A6 cells; EpH4-A6 cells, cytoblot): 1 µM | mitochondrial depolarization [1]: directly causes mitochondrial depolarization | deaths after injection (mice; 50 mg/kg, a few hours after the injection): one mouse out of 5 | maximum tolerable dose (MTD) (mice; intraperitoneal injection, mice): ~50 mg/kg | presence of F16 in tumor cells (fluorescent signal, FACS) [2]: delivered to the tumor cell mass | cell death on prolonged incubation (A6 cells): increased cell death
